Values joined by “and” are separate entries in the source; they are usually repeats but may differ in a detail not shown here. Identical values can stand only once. Toxic doses and inconclusive results are not listed.

In the assay the test system is P388 leukemia ip, CD2F1 mice, survival T/C. Kind of assay: NCI In Vivo Anticancer Drug Screen. Data for tumor model P388 Leukemia (intraperitoneal) in CD2F1 (CDF1) mice. To be noted: endpoint: median survival time, higher = longer survival. Summed up: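 Mice carrying the transplanted tumor received test compound or vehicle. Survival was recorded in each group, and the value is the treated-group measurement divided by that of the vehicle-treated control group.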

The mark [1] stands for this setting: dose: 60.0 mg/kg/injection, schedule: Q01DX005 (ip), vehicle: saline with Tween-80.

As for `CCOC(=O)C(CCC#N)(C(=O)Cc1ccc(OC)c(OC)c1)C(=O)OCC`, the T/C runs as follows: (dose: 25.0 mg/kg/injection, schedule: Q01DX009 (ip), vehicle: other) 101 % of control; (dose: 50.0 mg/kg/injection, schedule: Q01DX009 (ip), vehicle: other) 103 % of control; (dose: 100.0 mg/kg/injection, schedule: Q01DX009 (ip), vehicle: other) 106 % of control; (dose: 200.0 mg/kg/injection, schedule: Q01DX009 (ip), vehicle: other) 103 % of control; (dose: 400.0 mg/kg/injection, schedule: Q01DX009 (ip), vehicle: other) 103 % of control.

As to `CCC(N)Cc1cc(OC)c(C)cc1OC` (configuration not stated), the T/C (dose: 25.0 mg/kg/injection, schedule: Q01DX009 (ip), vehicle: saline with Tween-80) is 90 % of control; the T/C (dose: 50.0 mg/kg/injection, schedule: Q01DX009 (ip), vehicle: saline with Tween-80) was 98 % of control and 99 % of control; the T/C (dose: 100.0 mg/kg/injection, schedule: Q01DX009 (ip), vehicle: saline with Tween-80) is 103 % of control.

As to `Cc1cnnc2c3ccccc3nn12`, the T/C by setting is: (dose: 50.0 mg/kg/injection, schedule: Q01DX005 (ip), vehicle: Klucel (hydroxypropylcellulose) (HPC)) 99 % of control; (dose: 100.0 mg/kg/injection, schedule: Q01DX005 (ip), vehicle: Klucel (hydroxypropylcellulose) (HPC)) 101 % of control; (dose: 200.0 mg/kg/injection, schedule: Q01DX005 (ip), vehicle: Klucel (hydroxypropylcellulose) (HPC)) 101 % of control.

Take `O=C(CN1CC1)NCCCCCCCCCNC(=O)CN1CC1`: the T/C is 90 % of control (dose: 2.5 mg/kg/injection, schedule: Q01DX009 (ip), vehicle: saline with Tween-80); 150 % of control (dose: 5.0 mg/kg/injection, schedule: Q01DX009 (ip), vehicle: saline with Tween-80); 186 % of control (dose: 10.0 mg/kg/injection, schedule: Q01DX009 (ip), vehicle: saline with Tween-80).

For `O=C(O)CCC(=O)NCC1CCCC(CNC(=O)CCC(=O)O)C1` (configuration not stated), the T/C is 96 % of control (dose: 50.0 mg/kg/injection, schedule: Q01DX009 (ip), vehicle: Klucel (hydroxypropylcellulose) (HPC)); 110 % of control (dose: 100.0 mg/kg/injection, schedule: Q01DX009 (ip), vehicle: Klucel (hydroxypropylcellulose) (HPC)); 101 % of control (dose: 200.0 mg/kg/injection, schedule: Q01DX009 (ip), vehicle: Klucel (hydroxypropylcellulose) (HPC)).

On to `C=C1C(=O)O[C@@H]2/C=C(/C)[C@@H](OC(C)=O)C/C=C(\C)C(O)[C@@H](OC(=O)/C(C)=C\C)C12` (some centres not stated), for which the T/C by setting is: (dose: 25.0 mg/kg/injection, schedule: Q04DX002 (ip), vehicle: saline with Tween-80) 105 % of control; (dose: 50.0 mg/kg/injection, schedule: Q04DX002 (ip), vehicle: saline with Tween-80) 105 % of control; (dose: 100.0 mg/kg/injection, schedule: Q04DX002 (ip), vehicle: saline with Tween-80) 104 % of control; (dose: 200.0 mg/kg/injection, schedule: Q04DX002 (ip), vehicle: saline with Tween-80) 97 % of control.

Take `O=C1CCCCCCCNC(=O)CCCCCCC(=O)NCCCCCCCC(=O)NCCCCCCCCN1`: the T/C reads like this: (dose: 50.0 mg/kg/injection, schedule: Q01DX001 (ip), vehicle: Klucel (hydroxypropylcellulose) (HPC)) 91 % of control; (dose: 100.0 mg/kg/injection, schedule: Q01DX001 (ip), vehicle: Klucel (hydroxypropylcellulose) (HPC)) 90 % of control; (dose: 200.0 mg/kg/injection, schedule: Q01DX001 (ip), vehicle: Klucel (hydroxypropylcellulose) (HPC)) 86 % of control and 89 % of control; (dose: 400.0 mg/kg/injection, schedule: Q01DX001 (ip), vehicle: Klucel (hydroxypropylcellulose) (HPC)) 89 % of control.

As for `COc1cccc2c1C(=O)c1c(O)c3c(c(O)c1C2=O)CC(O)(C(C)=O)CC3OC1CC(N)C(O)C(C)O1` (configuration not stated), the T/C was 150 % of control and 163 % of control (dose: 0.63 mg/kg/injection, schedule: Q01DX009 (ip), vehicle: water); 158 % of control [middle of 7 runs] (dose: 1.25 mg/kg/injection, schedule: Q01DX009 (ip), vehicle: water); 103 % of control (dose: 1.5 mg/kg/injection, schedule: Q01DX009 (ip), vehicle: water); 160 % of control [middle of 16 runs] (dose: 2.5 mg/kg/injection, schedule: Q01DX009 (ip), vehicle: water); 102 % of control (dose: 2.9 mg/kg/injection, schedule: Q01DX009 (ip), vehicle: saline); 110 % of control (dose: 3.0 mg/kg/injection, schedule: Q01DX009 (ip), vehicle: water). Also, the T/C runs as follows: (dose: 3.13 mg/kg/injection, schedule: Q01DX009 (ip), vehicle: water) 155 % of control; (dose: 5.0 mg/kg/injection, schedule: Q01DX009 (ip), vehicle: water) 167 % of control [middle of 17 runs]; (dose: 6.0 mg/kg/injection, schedule: Q01DX009 (ip), vehicle: water) 110 % of control; (dose: 6.25 mg/kg/injection, schedule: Q01DX009 (ip), vehicle: water) 171 % of control; (dose: 8.0 mg/kg/injection, schedule: Q04DX003 (ip), vehicle: water) 114 % of control; (dose: 10.0 mg/kg/injection, schedule: Q01DX009 (ip), vehicle: water) 178 % of control [middle of 14 runs]. Also, the T/C (dose: 11.0 mg/kg/injection, schedule: Q04DX003 (ip), vehicle: water) is 103 % of control and 109 % of control; the T/C (dose: 12.0 mg/kg/injection, schedule: Q01DX009 (ip), vehicle: water) is 116 % of control; the T/C (dose: 12.5 mg/kg/injection, schedule: Q01DX009 (ip), vehicle: water) was 174 % of control; the T/C (dose: 15.0 mg/kg/injection, schedule: Q04DX003 (ip), vehicle: water) was 121 % of control; the T/C (dose: 16.0 mg/kg/injection, schedule: Q04DX003 (ip), vehicle: water) was 110 % of control and 122 % of control; the T/C (dose: 20.0 mg/kg/injection, schedule: Q01DX009 (ip), vehicle: other) is 155 % of control. The T/C (dose: 21.9 mg/kg/injection, schedule: Q04DX003 (ip), vehicle: water) was 97 % of control and 118 % of control; the T/C (dose: 23.4 mg/kg/injection, schedule: Q01DX009 (ip), vehicle: saline) was 188 % of control; the T/C (dose: 24.0 mg/kg/injection, schedule: Q01DX009 (ip), vehicle: water) was 108 % of control; the T/C (dose: 25.0 mg/kg/injection, schedule: Q01DX009 (ip), vehicle: water) is 197 % of control; the T/C (dose: 40.0 mg/kg/injection, schedule: Q01DX009 (ip), vehicle: water) is 104 % of control; the T/C (dose: 43.8 mg/kg/injection, schedule: Q04DX003 (ip), vehicle: water) was 106 % of control. Further, the T/C by setting is: (dose: 64.0 mg/kg/injection, schedule: Q04DX003 (ip), vehicle: water) 110 % of control; (dose: 87.5 mg/kg/injection, schedule: Q04DX003 (ip), vehicle: water) 157 % of control; (dose: 88.0 mg/kg/injection, schedule: Q04DX003 (ip), vehicle: water) 182 % of control; (dose: 120.0 mg/kg/injection, schedule: Q04DX003 (ip), vehicle: water) 160 % of control; (dose: 128.0 mg/kg/injection, schedule: Q04DX003 (ip), vehicle: water) 168 % of control and 172 % of control; (dose: 175.0 mg/kg/injection, schedule: Q04DX003 (ip), vehicle: water) 182 % of control. The T/C reads like this: (dose: 240.0 mg/kg/injection, schedule: Q04DX003 (ip), vehicle: water) 101 % of control; (dose: 256.0 mg/kg/injection, schedule: Q04DX003 (ip), vehicle: water) 177 % of control; (dose: 350.0 mg/kg/injection, schedule: Q04DX003 (ip), vehicle: water) 97 % of control.

`Oc1nc2nc[nH]n2c1N=Nc1ccccc1`: the T/C was 115 % of control (dose: 60.0 mg/kg/injection, schedule: Q01DX005 (ip), vehicle: Klucel (hydroxypropylcellulose) (HPC)); 98 % of control (dose: 120.0 mg/kg/injection, schedule: Q01DX005 (ip), vehicle: Klucel (hydroxypropylcellulose) (HPC)); 92 % of control (dose: 240.0 mg/kg/injection, schedule: Q01DX005 (ip), vehicle: Klucel (hydroxypropylcellulose) (HPC)).

`C/C=C1/CNC2Cc3c([nH]c4ccccc34)C(c3ccc4c5c([nH]c4c3)C3CC4CC(CC)C3N(CC5)C4)CC1C2C(=O)OC` (configuration not stated): the T/C runs as follows: (dose: 2.5 mg/kg/injection, schedule: Q01DX009 (ip), vehicle: saline) 106 % of control; (dose: 5.0 mg/kg/injection, schedule: Q01DX009 (ip), vehicle: saline) 100 % of control.

In the case of `C=CCNC(=S)n1cnc(N)n1`, the T/C is 107 % of control (dose: 30.0 mg/kg/injection, schedule: Q01DX005 (ip), vehicle: saline with Tween-80); 105 % of control and 108 % of control under setting [1]; 115 % of control and 96 % of control (dose: 120.0 mg/kg/injection, schedule: Q01DX005 (ip), vehicle: saline with Tween-80).

For `CC(CN(C)C)C(=O)/C=C/c1c(Cl)cccc1Cl` (configuration not stated), under setting [1], the T/C is 111 % of control.

The record behind these values is PubChem BioAssay AID330 (DTP/NCI, 2004).
